Key:
[1] = molecular target: T1, equine serum butyrylcholinesterase (eqBuChE) (Equus caballus, UniProt P81908); assay: Inhibition of butyrylcholinesterase (modified Ellman's method); format: biochemical; settings: for BuChE (I%) inhibition rate: 10^−3 M of the compound, pH 7.4, 37 °C; for SI (selectivity index = IBuChE/IAChE): ratio of inhibition rates at 10^−3 M
T1 construct: purchased J&K Scientific Co. (Beijing, China); host or cells: equine serum (by the product's name)
Procedure: (§1) In the study of cholinesterase inhibitors, the inhibitory effect of the compounds (the NSAIDs and their complexes 1–3) against AChE and BuChE was examined using a modified methodology based on Ellman’s method.
(§2) The ability of the compounds to inhibit AChE and BuChE was evaluated using UV-vis spectroscopy. All the assays were carried out in a 0.1M NaH2PO4/Na2HPO4 buffer at a pH = 7.4. Enzyme solutions were prepared with 2.0 U/mL for AChE and 3.0 U/mL for BuChE. A reaction mixture containing 20 μL of phosphate buffer, 100 μL of DTNB (1-mM), and 40 μL of the enzyme (AChE and BuChE) was incubated with 20 μL of the compounds at various concentrations at 37 °C for 15 min. The reaction was started by the addition of the substrate (20-μL) of ATCI or BTCI solution (1-mM), respectively, and incubation for additional 3 min.
(§3) The enzyme activity was determined by measuring the increase in absorbance at 2-min intervals at 412 nm at 37 °C (ε = 14,150 M^−1cm^−1).
The rate of inhibition of each enzyme by the compounds was calculated according to the following expression:(1) I%=(1−VB/VA)×100 where VB and VA indicate the absorbance measured for ChEs in the presence and absence of inhibitors, respectively. […] Neostigmine methyl sulfate was used as the appropriate standard.

DPPH radical scavenging = format: biochemical; settings: compound 0.1 mM; for DPPH% (DPPH scavenging ability), 20 min / DPPH% (DPPH scavenging ability), 60 min: ethanol
Procedure: The antioxidant activity of complexes 1–3 was evaluated via their ability to scavenge the free radicals DPPH, hydroxyl, and ABTS. Each experiment was performed in triplicate and the standard deviation of absorbance was less than 10% of the mean.
Ethanol was also used as a control solution. The absorbance at 517 nm was recorded at room temperature, two times, after 20 and 60 min, in order to examine the time-dependence of the DPPH-scavenging activity. The DPPH-scavenging activity of the compounds was expressed as the percentage reduction of the absorbance values of the initial DPPH solution (RA%). The compounds NDGA and BHT were used as reference compounds.

[2] = molecular target: T2, electric eel acetylcholinesterase (eeAChE) (Electrophorus electricus, UniProt O42275); assay: Inhibition of acetylcholinesterase (modified Ellman's method); format: biochemical; settings: 10^−3 M of the compound; pH 7.4, 37 °C
T2 construct: purchased J&K Scientific Co. (Beijing, China)
Procedure: as §1, §2, §3
The rate of inhibition of each enzyme by the compounds was calculated according to the following expression:(1) I%=(1−VB/VA)×100 where VB and VA indicate the absorbance measured for ChEs in the presence and absence of inhibitors, respectively. The results are expressed as the average of three repetitions of the tests performed and the standard deviation was less than 3% of the mean. The selectivity index (SI), defined as IC50 BuChE/IC50 AChE, was also calculated. Neostigmine methyl sulfate was used as the appropriate standard.

[3] = molecular target: T3, human serum albumin (HSA) (Homo sapiens, UniProt P02768); assay: HSA fluorescence emission quenching (albumin binding); settings: for ΔI/Io (%) quenching of HSA fluorescence: HSA 3 μM, λex 295 nm, λem 351 nm; for K albumin-binding constant (HSA): Scatchard equation; for Kq albumin-quenching constant (HSA): Stern–Volmer, τo = 10^−8 s; for relative HSA fluorescence emission intensity (I/Io, %) remaining: λem,max = 351 nm, up to, % of the initial HSA fluorescence
T3 construct: purchased Sigma-Aldrich Co. (St. Louis, MO, USA)
Procedure: The albumin-binding study for complexes 1–3 was performed via fluorescence emission quenching experiments using BSA (3 μM) or HSA (3 μM), respectively, in a buffer solution (containing 15-mM trisodium citrate and […] at pH 7.0). The quenching of the emission intensity of tryptophan residues of BSA at 343 nm or HSA at 351 nm was monitored using complexes 1–3 as quenchers with increasing concentrations. The fluorescence emission spectra were recorded in the range of 300–500 nm, with an excitation wavelength of 295 nm. The quantitative studies of the serum albumin fluorescence spectra were performed after correction by subtracting the spectra of the compounds.
The extent of the inner-filter effect can be roughly estimated with the following formula:(2) Icorr=Imeas×10^ε(λexc)cd/2×10^ε(λem)cd/2 where Icorr = corrected intensity, Imeas = the measured intensity, c = the concentration of the quencher, d = the cuvette (1 cm), ε(λexc), and ε(λem) = the ε of the quencher at the excitation and the emission wavelength, respectively, as calculated from the UV-vis spectra of the complexes.
The Stern–Volmer and Scatchard graphs are used in order to study the interaction of a quencher with serum albumins. The Stern–Volmer quenching equation is used:(3) Io/I=1+Kq×τ0×[Q]=1+KSV×[Q] where Io = the initial tryptophan fluorescence intensity of SA, I = the tryptophan fluorescence intensity of SA after the addition of the quencher, Kq = the quenching constants of SA, KSV = the Stern–Volmer constant, τo = the average lifetime of SA without the quencher, and [Q] = the concentration of the quencher. The value of KSV (M^−1) can be obtained by the slope of the diagram Io/I versus [Q]. Taking τo = 10^−8 s as the fluorescence lifetime of tryptophan in SA, the value of Kq (M^−1s^−1) is calculated from the equation:(4) KSV=Kq×τo and from the Scatchard equation [130]:(5) ΔI/Io/[Q]=n×K−K×ΔI/Io where n is the number of binding sites per albumin and K is the SA-binding constant, K (in M^−1) is calculated from the slope in plots (ΔI/Io)/[Q] versus (ΔI/Io), and n is given by the ratio of y-intercept to the slope.

EB–DNA adduct (CT DNA) = assay: EB-displacement from EB–DNA adduct (fluorescence emission); format: binding, calf; settings: for KSV Stern–Volmer constant (EB–DNA): EB–DNA fluorescence; for relative EB–DNA fluorescence intensity (I/Io, %) remaining: λem = 592 nm, up to, % of the initial EB–DNA fluorescence; for Kq quenching constant of the EB–DNA fluorescence: τo = 23 ns
Procedure: EB-displacement studies: The competition of complexes 1–3 with EB was investigated by fluorescence emission spectroscopy in order to examine whether the complexes can displace EB from its DNA–EB conjugate. The DNA–EB conjugate was prepared by adding 20-μM EB and 26-μM CT DNA in the buffer solution (150-mM NaCl and 15-mM trisodium citrate at pH 7.0). The possible intercalating effect of the complexes was studied by the addition of a certain amount of a solution of the compound into a solution of the DNA–EB conjugate. The influence of each compound to the DNA–EB complex solution was obtained by recording the changes in the fluorescence emission spectra with the excitation wavelength (λex) at 540 nm.
The Stern–Volmer constant KSV is used to evaluate the quenching efficiency for each compound according to the Stern–Volmer equation (Equation (3)), where Io and I are the emission intensities in the absence and the presence of the quencher, respectively, and [Q] is the concentration of the quencher (i.e., complexes 1–3). The value of KSV is obtained from the Stern–Volmer plots by using the slope of the diagram Io/I versus [Q]. Taking τo = 23 ns as the fluorescence lifetime of the EB–DNA system, the EB–DNA quenching constants (Kq, in M^−1s^−1) of the compounds can be determined according to Equation (4).

T3 sequence (P02768 25-609): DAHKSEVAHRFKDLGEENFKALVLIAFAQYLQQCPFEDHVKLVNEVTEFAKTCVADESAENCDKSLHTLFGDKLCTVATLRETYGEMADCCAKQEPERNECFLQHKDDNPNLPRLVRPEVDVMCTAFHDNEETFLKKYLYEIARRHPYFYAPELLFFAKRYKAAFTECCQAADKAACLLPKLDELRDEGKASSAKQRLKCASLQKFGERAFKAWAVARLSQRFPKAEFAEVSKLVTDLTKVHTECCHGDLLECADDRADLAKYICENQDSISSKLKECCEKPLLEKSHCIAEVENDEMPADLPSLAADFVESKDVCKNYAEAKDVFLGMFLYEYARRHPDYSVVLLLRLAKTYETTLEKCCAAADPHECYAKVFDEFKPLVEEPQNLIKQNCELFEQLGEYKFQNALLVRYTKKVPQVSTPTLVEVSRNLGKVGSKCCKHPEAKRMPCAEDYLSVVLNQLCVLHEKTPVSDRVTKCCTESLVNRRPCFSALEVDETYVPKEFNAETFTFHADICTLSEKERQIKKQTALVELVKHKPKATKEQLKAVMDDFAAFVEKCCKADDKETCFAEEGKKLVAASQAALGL
T1 sequence (P81908 whole entry): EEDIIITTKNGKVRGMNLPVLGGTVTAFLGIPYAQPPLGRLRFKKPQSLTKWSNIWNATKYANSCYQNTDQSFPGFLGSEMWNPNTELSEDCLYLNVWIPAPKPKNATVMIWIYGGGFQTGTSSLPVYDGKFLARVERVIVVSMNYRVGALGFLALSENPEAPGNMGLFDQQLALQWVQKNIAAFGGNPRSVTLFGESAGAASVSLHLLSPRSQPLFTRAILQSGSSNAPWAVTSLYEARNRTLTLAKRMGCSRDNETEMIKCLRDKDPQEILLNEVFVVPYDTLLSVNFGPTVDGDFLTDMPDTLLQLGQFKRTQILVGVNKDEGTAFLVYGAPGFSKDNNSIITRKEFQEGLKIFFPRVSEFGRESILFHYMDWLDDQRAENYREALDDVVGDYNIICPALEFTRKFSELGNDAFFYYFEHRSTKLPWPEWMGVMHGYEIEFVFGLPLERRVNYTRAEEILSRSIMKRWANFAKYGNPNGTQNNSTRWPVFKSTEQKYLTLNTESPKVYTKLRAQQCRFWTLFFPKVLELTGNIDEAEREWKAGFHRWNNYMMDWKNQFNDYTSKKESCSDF
T2 sequence (O42275 24-633): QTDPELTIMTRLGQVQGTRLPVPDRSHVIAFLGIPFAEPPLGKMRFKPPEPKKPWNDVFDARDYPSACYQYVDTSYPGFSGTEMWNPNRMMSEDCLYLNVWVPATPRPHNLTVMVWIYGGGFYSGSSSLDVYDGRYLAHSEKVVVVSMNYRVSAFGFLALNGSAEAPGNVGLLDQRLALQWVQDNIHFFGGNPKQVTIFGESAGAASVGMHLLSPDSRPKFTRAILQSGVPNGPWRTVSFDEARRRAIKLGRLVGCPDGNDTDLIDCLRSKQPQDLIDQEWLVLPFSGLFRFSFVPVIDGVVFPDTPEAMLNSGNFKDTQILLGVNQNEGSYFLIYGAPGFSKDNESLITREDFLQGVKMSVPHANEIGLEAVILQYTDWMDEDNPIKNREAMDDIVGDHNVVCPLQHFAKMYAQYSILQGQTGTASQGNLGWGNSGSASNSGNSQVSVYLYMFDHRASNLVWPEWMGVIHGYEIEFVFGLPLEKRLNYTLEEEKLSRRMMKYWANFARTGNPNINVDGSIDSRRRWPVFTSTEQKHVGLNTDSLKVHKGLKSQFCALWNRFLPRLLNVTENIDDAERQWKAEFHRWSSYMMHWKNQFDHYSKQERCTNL

Row | Substance | BuChE (I%) inhibition rate [1] [%] | SI (selectivity index = IBuChE/IAChE) [1] | DPPH% (DPPH scavenging ability), 20 min (DPPH radical scavenging) [%] | DPPH% (DPPH scavenging ability), 60 min (DPPH radical scavenging) [%] | AChE (I%) inhibition rate [2] [%] | ΔI/Io (%) quenching of HSA fluorescence [3] [%] | K albumin-binding constant (HSA) [3] | Kq albumin-quenching constant (HSA) [3] | relative HSA fluorescence emission intensity (I/Io, %) remaining [3] [%] | KSV Stern–Volmer constant (EB–DNA) (EB–DNA adduct (CT DNA)) | ΔI/Io (%) EB–DNA fluorescence quenching (EB–DNA adduct (CT DNA); [EB] = 20 μM, [DNA] = 26 μM, λex 540 nm, λem 592 nm) [%] | relative EB–DNA fluorescence intensity (I/Io, %) remaining (EB–DNA adduct (CT DNA)) [%] | Kq quenching constant of the EB–DNA fluorescence (EB–DNA adduct (CT DNA)) | DPPH% (span over 20-min and 60-min treatments) (DPPH radical scavenging; 20 min and 60 min)
1 | [Fe3O(dicl)6(MeOH)3][FeCl4]·Hdicl·1.5MeOH∙H2O [Complex 3] | 76.65 ± 1.95 | 21.59 | 18.94 ± 0.73 | 18.98 ± 0.74 | 3.55 ± 1.26 | 96.5 | 2.42 (±0.17) × 10^5 M^−1 | 5.22 (±0.35) × 10^13 M^−1s^−1 | 3.5 | 1.53 (±0.51) × 10^6 M^−1 | 74.3 | 25.7 | 6.66 (±0.23) × 10^13 M^−1s^−1 | 
2 | [Fe3O(dicl)6(py)3]Cl∙py [Complex 2] | 74.36 ± 1.40 | 20.89 | 23.12 ± 0.37 | 22.97 ± 0.17 | 3.56 ± 0.11 | 99.4 | 3.87 (±0.42) × 10^5 M^−1 | 6.09 (±0.30) × 10^13 M^−1s^−1 | 0.6 | 6.15 (±0.29) × 10^5 M^−1 |  | 41.8 | 2.68 (±0.56) × 10^13 M^−1s^−1 | 22.97–23.12%

Reference: article PMC10094617, “Iron(III) Complexes with Non-Steroidal Anti-Inflammatory Drugs: Structure, Antioxidant and Anticholinergic Activity, and Interaction with Biomolecules” (International Journal of Molecular Sciences, 2023)
